Values quoted from earlier work as cited in PMC10225205 (Cancer Medicine, 2023).
Like-named read-outs stand apart in the source and are kept apart here.

Settings: cited from earlier work

Question: For `CCN1CCN(c2ccc(Nc3cc(N(C)C(=O)Nc4c(Cl)c(OC)cc(OC)c4Cl)ncn3)cc2)CC1` [infigratinib], which “Most commonly reported (>30%) TEAEs” value (global phase 1 study) is on record?
Answer: hyperphosphatemia, constipation, appetite decreased, stomatitis, diarrhea, nausea, and fatigue

Question: With `COc1cc(OC)cc(N(CCNC(C)C)c2ccc3ncc(-c4cnn(C)c4)nc3c2)c1` [erdafitinib] as the molecule, how does the “Most common TEAE” value (in vivo) read?
Answer: hyperphosphatemia

Question: And the “Most common TEAEs” value (phase 1 multicenter study, advanced solid tumors)?
Answer: hyperphosphatemia, dry mouth, stomatitis, and asthenia

Question: Which results are given for `C=CC(=O)N1CC[C@H](n2nc(C#Cc3cc(OC)cc(OC)c3)c3c(N)ncnc32)C1` [futibatinib]?
Answer: Most common TEAE (phase 1, Japanese patients with advanced solid tumors): hyperphosphatemia; Most frequently reported TEAEs (phase 1 study, advanced solid tumors): hyperphosphatemia, diarrhea, constipation, and nausea
